In ChEMBL document CHEMBL3259758, “Thiazolopyridine ureas as novel antitubercular agents acting through inhibition of DNA Gyrase B” (J Med Chem, 2013):

Columns and labels:
Plasma = conditions: human
physchem = conditions: octanol/water, pH 7.4
[1] = AUC in po dosed Balb/c mouse infected with Mycobacterium tuberculosis H37Rv administered via gavage for 10 days starting 3 days post-infection measured at day 9 of drug dosing; type: ADME, organism-based; conditions: plasma

Row | SMILES | Cp(f) (Plasma) [µM] | logD (physchem) | AUC [1] [µg·h/mL]
1 | CCNC(=O)Nc1nc2cc(-c3ccn(CCOC)c(=O)c3)c(N[C@H]3CCOC3)nc2s1 | 13 |  | 
2 | C=CCNC(=O)Nc1nc2cc(-c3cccnc3)ccc2s1 | 0.7 | 3.9 | 
3 | C=CCNC(=O)Nc1nc2cc(-c3cccnc3)cnc2s1 | 3.2 | 2.9 | 
4 | CCNC(=O)Nc1nc2cc(-c3cccnc3)c(N[C@H]3CCOC3)nc2s1 | 28 | 2 | 200
5 | CCNC(=O)Nc1nc2cc(-c3cccnc3)c(NCC3CCOC3)nc2s1 (stereo not drawn) | 40 | 2.7 | 
6 | CCNC(=O)Nc1nc2cc(-c3ccc(F)nc3)c(OCC3CCOC3)nc2s1 (stereo not drawn) | 0.6 |  | 
7 | CCNC(=O)Nc1nc2cc(-c3ccc(C)nc3)c(OCC3CCOC3)nc2s1 (stereo not drawn) | 0.9 |  | 
8 | CCNC(=O)Nc1nc2cc(-c3cncc(OC)c3)c(OCC3CCOC3)nc2s1 (stereo not drawn) | 2.5 |  | 
9 | CCNC(=O)Nc1nc2cc(-c3cnc(C)nc3)c(OCC3CCOC3)nc2s1 (stereo not drawn) | 6 |  | 
10 | CCNC(=O)Nc1nc2cc(-c3ccc(C#N)nc3)c(NC3CCOCC3)nc2s1 | 6 |  | 
11 | CCNC(=O)Nc1nc2cc(-c3cncc(OCCN(C)C)c3)c(OCC3CCOC3)nc2s1 (stereo not drawn) | 11 |  | 
12 | CCNC(=O)Nc1nc2cc(-c3cncc(OCCN4CCOCC4)c3)c(OCC3CCOC3)nc2s1 (stereo not drawn) | 10 |  | 
13 | CCNC(=O)Nc1nc2cc(-c3ccn(C)c(=O)c3)c(OCC3CCOC3)nc2s1 (stereo not drawn) | 5 |  | 
14 | CCNC(=O)Nc1nc2cc(-c3cc(C(C)C)n(C)c(=O)c3)c(OCC3CCOC3)nc2s1 (stereo not drawn) | 4 |  | 
15 | CCNC(=O)Nc1nc2cc(-c3ccn(CCOC)c(=O)c3)c(OCC3CCOC3)nc2s1 (stereo not drawn) | 7 |  | 
16 | CCNC(=O)Nc1nc2cc(-c3ccn(CCOC)c(=O)c3)c(O[C@@H]3CCOC3)nc2s1 | 11 |  | 
17 | CCNC(=O)Nc1nc2cc(-c3ccn(CCN(C)C)c(=O)c3)c(OCC3CCOC3)nc2s1 (stereo not drawn) | 5 |  | 
18 | CCNC(=O)Nc1nc2cc(-c3ccn(CCN4CCOCC4)c(=O)c3)c(OCC3CCOC3)nc2s1 (stereo not drawn) | 5 |  | 
